Source: ChEMBL document CHEMBL1201862, “PubChem BioAssay data set” (2004)
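Cells were grown in 96-well plates and exposed to each compound for 48 hours at five concentrations; endpoints were interpolated linearly between bracketing concentrations, or set to the highest concentration if not reached. GI50 is the concentration that inhibits growth by half.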 Activity calls are given as the source filed them. Cut-off read from the data, not from the text of the source: active = GI50 up to about 1.1 µM and inactive = higher.

Tests used:
Assay in all cases: NCI-60 cell line screen, 48 h
BT-549 = system: BT-549
CCRF-CEM = system: CCRF-CEM
COLO 205 = system: COLO 205
EKVX = system: EKVX
HCT-116 = system: HCT-116
HCT-15 = system: HCT-15
HOP-62 = system: HOP-62
Hs-578T = system: Hs-578T
IGROV-1 = system: IGROV-1
K562 = system: K562
Malme-3M = system: Malme-3M
NCI-H522 = system: NCI-H522
OVCAR-5 = system: OVCAR-5
RPMI-8226 = system: RPMI-8226
SK-MEL-28 = system: SK-MEL-28
SK-OV-3 = system: SK-OV-3
SNB-19 = system: SNB-19
SNB-75 = system: SNB-75
RXF 393 = system: RXF 393

Row | SMILES | GI50 (BT-549) | GI50 (CCRF-CEM) | GI50 (COLO 205) | GI50 (EKVX) | GI50 (HCT-116) | GI50 (HCT-15) [µM] | GI50 (HOP-62) | GI50 (Hs-578T) | GI50 (IGROV-1) | GI50 (K562) | GI50 (Malme-3M) | GI50 (NCI-H522) | GI50 (OVCAR-5) | GI50 (RPMI-8226) | GI50 (SK-MEL-28) | GI50 (SK-OV-3) | GI50 (SNB-19) | GI50 (SNB-75) | GI50 (RXF 393)
1 | Cc1cccc2c1[C@]13OC(C)[C@]4(C)CC5OC(=O)[C@@]1(C)[C@@H]5[C@]34C(=O)O2 (stereo not given in full) | > 100 µM (inactive) | > 100 µM (inactive) | > 100 µM (inactive) | > 100 µM (inactive) | > 100 µM (inactive) | > 100 | > 100 µM (inactive) | > 100 µM (inactive) | > 100 µM (inactive) | > 100 µM (inactive) | > 100 µM (inactive) | > 100 µM (inactive) | > 100 µM (inactive) | > 100 µM (inactive) | > 100 µM (inactive) | > 100 µM (inactive) | > 100 µM (inactive) | > 100 µM (inactive) | 
2 | COc1ccc2c(c1)CC1=C(O2)c2ccc(OC)cc2OC1 | 21.5 µM (inactive) | 31 µM (inactive) | 18.3 µM (inactive) | 15.2 µM (inactive) | 18.3 µM (inactive) | 17.2 | 41.9 µM (inactive) |  | 28.5 µM (inactive) | 44.8 µM (inactive) | 22.5 µM (inactive) | 17 µM (inactive) | 49.4 µM (inactive) | 33.7 µM (inactive) |  | 90.4 µM (inactive) |  | 25 µM (inactive) | 
3 | O=C1c2ccccc2C2=Nc3ccncc3CN12 | > 100 µM (inactive) | > 100 µM (inactive) | > 100 µM (inactive) | 25.9 µM (inactive) | > 100 µM (inactive) | > 100 | > 100 µM (inactive) |  | > 100 µM (inactive) | > 100 µM (inactive) | > 100 µM (inactive) | > 100 µM (inactive) | > 100 µM (inactive) | > 100 µM (inactive) | > 100 µM (inactive) | > 100 µM (inactive) | > 100 µM (inactive) | 74.5 µM (inactive) | > 100 µM (inactive)
4 | CN(CCCNC(=O)c1nn(-c2ccc(Cl)cc2Cl)c2c1ccc1ccccc12)CCCNC(=O)c1nn(-c2ccc(Cl)cc2Cl)c2c1ccc1ccccc12 |  | 1.92 µM (inactive) | 1.91 µM (inactive) | 1.69 µM (inactive) | 1.67 µM (inactive) | 1.7 | 1.77 µM (inactive) | 1.44 µM (inactive) | 1.74 µM (inactive) | 1.1 µM (active) | 1.95 µM (inactive) | 1.46 µM (inactive) | 1.89 µM (inactive) | 1.87 µM (inactive) | 1.66 µM (inactive) | 2 µM (inactive) | 1.54 µM (inactive) | 1.75 µM (inactive) | 1.66 µM (inactive)
5 | COc1cc2c(cc1OC)C(=O)/C(=C/c1ccc([N+](=O)[O-])cc1)CC2 | > 10 µM (inactive) | > 10 µM (inactive) | > 10 µM (inactive) | > 10 µM (inactive) | > 10 µM (inactive) | > 10 | > 10 µM (inactive) | > 10 µM (inactive) | > 10 µM (inactive) | > 10 µM (inactive) | > 10 µM (inactive) |  | > 10 µM (inactive) | > 10 µM (inactive) | > 10 µM (inactive) | > 10 µM (inactive) | > 10 µM (inactive) |  | > 10 µM (inactive)
6 | COC(=O)/C=c1/c2ccccc2n2c1c1ccccc1[n+]2C | 3.3 µM (inactive) | 3.3 µM (inactive) | 1.26 µM (inactive) | 3.08 µM (inactive) | 3.31 µM (inactive) | 13.4 | 3.05 µM (inactive) | 2.64 µM (inactive) | 3.56 µM (inactive) | 3.64 µM (inactive) | 2.98 µM (inactive) |  | 4.6 µM (inactive) | 2.77 µM (inactive) | 5.82 µM (inactive) | 2.67 µM (inactive) | 4.88 µM (inactive) | 3.69 µM (inactive) | 4.54 µM (inactive)
7 | Cc1ccccc1Nc1nc2ccccc2nc1NS(=O)(=O)c1ccccc1 |  | > 100 µM (inactive) | > 100 µM (inactive) | > 100 µM (inactive) | > 100 µM (inactive) | > 100 | 68.1 µM (inactive) | > 100 µM (inactive) | > 100 µM (inactive) | > 100 µM (inactive) | > 100 µM (inactive) | > 100 µM (inactive) | > 100 µM (inactive) | > 100 µM (inactive) | > 100 µM (inactive) | > 100 µM (inactive) | 96.8 µM (inactive) | 56.2 µM (inactive) | > 100 µM (inactive)
8 | O=C(N/N=C\c1ccc([N+](=O)[O-])cc1)c1ccccc1Nc1ccccc1C(=O)N/N=C/c1ccc([N+](=O)[O-])cc1 | > 100 µM (inactive) | 85.7 µM (inactive) | > 100 µM (inactive) | > 100 µM (inactive) | > 100 µM (inactive) | > 100 | > 100 µM (inactive) | > 100 µM (inactive) | > 100 µM (inactive) | > 100 µM (inactive) | 39.4 µM (inactive) |  | 76.4 µM (inactive) | > 100 µM (inactive) | > 100 µM (inactive) | > 100 µM (inactive) | > 100 µM (inactive) | > 100 µM (inactive) | > 100 µM (inactive)
